Assay results reported in publication PMC9964459, “Nornidulin, A New Inhibitor of Plasmodium falciparum Malate: Quinone Oxidoreductase (PfMQO) from Indonesian Aspergillus sp. BioMCC f.T.8501” (Pharmaceuticals, 2023).

Molecular target: T1, Plasmodium falciparum malate:quinone oxidoreductase (PfMQO) (Plasmodium falciparum, UniProt C6KT09)
T1 construct: gene PF3D7_0616800; PfMQO-membrane fraction from PfMQO-expressing recombinant Escherichia coli
T1 sequence (C6KT09 1-521): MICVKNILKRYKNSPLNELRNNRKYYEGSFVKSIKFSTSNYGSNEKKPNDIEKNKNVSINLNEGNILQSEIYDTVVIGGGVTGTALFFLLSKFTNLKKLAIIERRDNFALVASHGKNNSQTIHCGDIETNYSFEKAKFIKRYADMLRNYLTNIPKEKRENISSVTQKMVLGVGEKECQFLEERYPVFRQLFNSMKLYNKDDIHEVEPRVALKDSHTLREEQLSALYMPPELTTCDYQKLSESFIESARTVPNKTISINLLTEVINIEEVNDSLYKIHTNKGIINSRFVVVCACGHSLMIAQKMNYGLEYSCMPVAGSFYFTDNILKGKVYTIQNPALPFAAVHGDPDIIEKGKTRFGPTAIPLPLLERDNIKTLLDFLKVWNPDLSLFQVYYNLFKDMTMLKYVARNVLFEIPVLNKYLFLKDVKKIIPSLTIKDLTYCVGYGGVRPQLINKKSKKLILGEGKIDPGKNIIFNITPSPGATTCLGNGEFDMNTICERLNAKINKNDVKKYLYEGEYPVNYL
Test: DCIP-reduction enzyme assay (A600, malate/decylubiquinone) with recombinant PfMQO membrane fraction
Type: biochemical

**Q.** For `C/C=C(\C)c1c(Cl)c(O)c(C)c2c1Oc1c(Cl)c(O)c(Cl)c(C)c1C(=O)O2` [Fr10, nornidulin], which IC50 is on record?
**A.** 51 µM
